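96-well plates; 48 h exposure; 5 concentrations. Endpoints by linear interpolation between flanking doses. Not reached: highest tested concentration assigned. At the GI50, growth is halved.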 The source made the active and inactive calls. Rule as the data show it: active = GI50 up to about 1.1 µM and inactive = higher.
Columns and labels:
Test in all cases: DTP human tumour cell line panel, 48 h
HL-60 = test system: HL-60
RXF 393 = test system: RXF 393
LOX IMVI = test system: LOX IMVI
UACC-257 = test system: UACC-257
SK-MEL-5 = test system: SK-MEL-5
CCRF-CEM = test system: CCRF-CEM
A498 = test system: A498
OVCAR-3 = test system: OVCAR-3
TK-10 = test system: TK-10
SK-OV-3 = test system: SK-OV-3
COLO 205 = test system: COLO 205
HT-29 = test system: HT-29
NCI-H23 = test system: NCI-H23
NCI-H522 = test system: NCI-H522
SK-MEL-2 = test system: SK-MEL-2
HCT-15 = test system: HCT-15
HOP-92 = test system: HOP-92
SNB-75 = test system: SNB-75
SW-620 = test system: SW-620

SMILES	GI50 (HL-60)	GI50 (RXF 393)	GI50 (LOX IMVI)	GI50 (UACC-257)	GI50 (SK-MEL-5)	GI50 (CCRF-CEM)	GI50 (A498)	GI50 (OVCAR-3)	GI50 (TK-10)	GI50 (SK-OV-3)	GI50 (COLO 205)	GI50 (HT-29)	GI50 (NCI-H23)	GI50 (NCI-H522)	GI50 (SK-MEL-2)	GI50 (HCT-15)	GI50 (HOP-92)	GI50 (SNB-75)	GI50 (SW-620)
CC(C)(C)NC(NC(C)(C)C)=C(/C=C(/Cl)[N+](=O)[O-])[N+](=O)[O-]	29.5 µM (inactive)	> 100 µM (inactive)	> 100 µM (inactive)	94 µM (inactive)	44.9 µM (inactive)	67.8 µM (inactive)	> 100 µM (inactive)	20 µM (inactive)	> 100 µM (inactive)	> 100 µM (inactive)	26.4 µM (inactive)	41.8 µM (inactive)	42.7 µM (inactive)	> 100 µM (inactive)	> 100 µM (inactive)	73.1 µM	> 100 µM (inactive)	0.0395 µM (active)	–
O=Cc1ccccc1OCCOc1cc(OCCOc2ccccc2C=O)c(OCCOc2ccccc2C=O)cc1OCCOc1ccccc1C=O	> 78.2 µM (inactive)	29.6 µM (inactive)	36.5 µM (inactive)	> 100 µM (inactive)	> 100 µM (inactive)	> 37.1 µM (inactive)	> 100 µM (inactive)	> 100 µM (inactive)	42.6 µM (inactive)	> 82.4 µM (inactive)	> 100 µM (inactive)	> 100 µM (inactive)	56.5 µM (inactive)	> 86.9 µM (inactive)	44.9 µM (inactive)	> 66.2 µM	26.2 µM (inactive)	8.07 µM (inactive)	46.5 µM (inactive)
CCO/C([O-])=C(/C=O)[n+]1c(C)n(C)c2ccccc21	> 100 µM (inactive)	> 100 µM (inactive)	> 100 µM (inactive)	> 100 µM (inactive)	> 100 µM (inactive)	> 100 µM (inactive)	> 100 µM (inactive)	> 100 µM (inactive)	> 100 µM (inactive)	> 100 µM (inactive)	> 100 µM (inactive)	> 100 µM (inactive)	> 100 µM (inactive)	> 100 µM (inactive)	> 100 µM (inactive)	> 100 µM	–	> 100 µM (inactive)	> 100 µM (inactive)
C1CCC(N=C2N(C3CCCCC3)C(=NC3CCCCC3)N2C2CCCCC2)CC1	> 100 µM (inactive)	> 100 µM (inactive)	> 100 µM (inactive)	> 100 µM (inactive)	> 100 µM (inactive)	> 100 µM (inactive)	> 10 µM (inactive)	> 100 µM (inactive)	> 100 µM (inactive)	> 100 µM (inactive)	> 100 µM (inactive)	> 100 µM (inactive)	> 100 µM (inactive)	> 100 µM (inactive)	> 100 µM (inactive)	> 100 µM	30.3 µM (inactive)	20.9 µM (inactive)	> 100 µM (inactive)
Cc1ccccc1NC(=O)Cc1csc(N/N=C2\C(=O)Nc3ccccc32)n1	22.3 µM (inactive)	28.8 µM (inactive)	64.1 µM (inactive)	91 µM (inactive)	46.8 µM (inactive)	46 µM (inactive)	> 100 µM (inactive)	–	53.2 µM (inactive)	–	> 100 µM (inactive)	55.6 µM (inactive)	38.4 µM (inactive)	17.7 µM (inactive)	44.6 µM (inactive)	37.2 µM	30.2 µM (inactive)	55.1 µM (inactive)	1 µM (active)
CN(C)CCNC(=O)c1cccc2nc3ccc4cccnc4c3nc12	0.348 µM (active)	0.167 µM (active)	0.24 µM (active)	0.447 µM (active)	0.343 µM (active)	0.213 µM (active)	0.214 µM (active)	0.61 µM (active)	0.107 µM (active)	0.469 µM (active)	0.232 µM (active)	0.208 µM (active)	0.294 µM (active)	–	0.895 µM (active)	0.209 µM	0.351 µM (active)	0.507 µM (active)	0.0675 µM (active)
O=C(CC1(O)C(=O)Nc2ccccc21)c1ccc(O)cc1O (configuration not stated)	> 100 µM (inactive)	> 100 µM (inactive)	> 100 µM (inactive)	> 100 µM (inactive)	> 100 µM (inactive)	–	> 100 µM (inactive)	> 100 µM (inactive)	> 100 µM (inactive)	> 100 µM (inactive)	> 100 µM (inactive)	> 100 µM (inactive)	> 100 µM (inactive)	> 100 µM (inactive)	> 100 µM (inactive)	> 100 µM	> 100 µM (inactive)	> 100 µM (inactive)	> 100 µM (inactive)
Nc1ncnc2c1ncn2C1CC(OC2CCCCO2)C(CO)O1 (configuration not stated)	> 100 µM (inactive)	> 100 µM (inactive)	> 100 µM (inactive)	> 100 µM (inactive)	–	> 100 µM (inactive)	> 100 µM (inactive)	> 100 µM (inactive)	> 100 µM (inactive)	> 100 µM (inactive)	> 100 µM (inactive)	> 100 µM (inactive)	> 100 µM (inactive)	> 100 µM (inactive)	> 100 µM (inactive)	> 100 µM	> 100 µM (inactive)	–	> 100 µM (inactive)
NC1CCCCC1.O=P(O)(O)C1(P(=O)(O)O)CC1	–	> 100 µM (inactive)	> 100 µM (inactive)	> 100 µM (inactive)	> 100 µM (inactive)	> 100 µM (inactive)	> 100 µM (inactive)	> 100 µM (inactive)	> 100 µM (inactive)	> 100 µM (inactive)	> 100 µM (inactive)	> 100 µM (inactive)	> 100 µM (inactive)	> 100 µM (inactive)	> 100 µM (inactive)	> 100 µM	–	> 100 µM (inactive)	> 100 µM (inactive)
CN[C@@H](C)[C@H](N)c1ccccc1	–	> 100 µM (inactive)	> 100 µM (inactive)	> 100 µM (inactive)	> 100 µM (inactive)	> 100 µM (inactive)	> 100 µM (inactive)	> 100 µM (inactive)	> 100 µM (inactive)	> 100 µM (inactive)	> 100 µM (inactive)	> 100 µM (inactive)	> 100 µM (inactive)	> 100 µM (inactive)	–	> 100 µM	> 100 µM (inactive)	> 100 µM (inactive)	> 100 µM (inactive)
CCCCCCCCCC(=O)OCC1OC(n2cc(F)c(=O)[nH]c2=O)C(N)C(OC(=O)CCCCCCCCC)C1O (configuration not stated)	23.3 µM (inactive)	15.9 µM (inactive)	16.5 µM (inactive)	20 µM (inactive)	22.6 µM (inactive)	18.5 µM (inactive)	15.5 µM (inactive)	18.6 µM (inactive)	36.1 µM (inactive)	60 µM (inactive)	17.5 µM (inactive)	17.5 µM (inactive)	18.7 µM (inactive)	14.6 µM (inactive)	15.5 µM (inactive)	18.2 µM	20.6 µM (inactive)	16.3 µM (inactive)	17.4 µM (inactive)

— ChEMBL document CHEMBL1201862, “PubChem BioAssay data set” (2004)
